Laboratory results: ChEMBL document CHEMBL5137053 (J Med Chem, 2022)

Test: Binding affinity to NL63-CoV main protease by FRET assay
Parameters: species or system Human coronavirus NL63

## CC(C)(C)[C@H](NC(=O)C(F)(F)F)C(=O)N1C[C@H]2[C@@H]([C@H]1C(=O)N[C@H](C#N)C[C@@H]1CCNC1=O)C2(C)C
  Ki: 0.226 µM
